Where a name gives a salt, the structure may show the parent alone.
Key:
Brd4 bromodomain 1 = biological target: T1, Brd4 bromodomain 1 (Homo sapiens, UniProt O60885); assay: Inhibition of binding of tetra-acetylated histone H4 and Brd4 bromodomain 1 by TR-FRET; settings: His-tagged bromodomain 200 nM, biotinylated tetra-acetylated histone H4 peptide 25-50 nM, 2 hours at room temperature
T1 construct: made in house; host or cells: E. coli BL21(DE3)
Method: Proteins were cloned and overexpressed with a N-terminal 6×His tag, then purified by nickel affinity followed by size exclusion chromatography. Briefly, E. coli BL21(DE3) cells were transformed with a recombinant expression vector encoding N-terminally […] tagged bromodomains from Brd2, Brd3, or Brd4. Cell cultures were incubated at 37° C. with shaking to the appropriate density and induced overnight with IPTG. The supernatant of lysed cells was loaded onto Ni-IDA column for purification. Eluted protein was pooled, concentrated and further purified by size exclusion chromatography. Fractions representing monomeric protein were pooled, concentrated, aliquoted, and frozen at −80° C. for use in subsequent experiments.
For inhibition assays, serially diluted test compound was added to these reactions in a 0.2% final concentration of DMSO. Final buffer concentrations were 30 mM HEPES pH 7.4, 30 mM NaCl, 0.3 mM CHAPS, 20 mM phosphate pH 7.0, 320 mM KF, 0.08% BSA). […] The binding inhibitory activity was shown by a decrease in 665 nm fluorescence relative to 620 nm. IC50 values were determined from a dose response curve.

Row | SMILES | melting point | FRET activity (<50 uM) (Brd4 bromodomain 1)
1 | Cc1cc(-c2cc3ncccc3c(=O)[nH]2)cc(C)c1O (as salt: HCl) [Example 5, 7-(4-hydroxy-3,5-dimethylphenyl)-1,6-naphthyridin-5(6H)-one] | > 350 °C | –
2 | COc1cc(OC)c2c(=O)[nH]c(-c3cc(C)c(O)c(C)c3)cc2n1 (as salt: HCl) [Example 13, 7-(4-hydroxy-3,5-dimethylphenyl)-2,4-dimethoxy-1,6-naphthyridin-5(6H)-one] | > 324 °C | –
3 | COc1cc(OC)c2c(=O)[nH]c(-c3cc(C)c(OCCN(C)C)c(C)c3)cc2c1 (as salt: hydrochloride) [Example 7, 3-(4-(2-(dimethylamino)ethoxy)-3,5-dimethylphenyl)-6,8-dimethoxyisoquinolin-1(2H)-one] | 261 to 263 °C | –
4 | Cc1cc(-c2cc3ccc(CN4CCOCC4)cc3c(=O)[nH]2)cc(C)c1O (as salt: hydrochloride) [Example 8, 3-(4-hydroxy-3,5-dimethylphenyl)-7-(morpholinomethyl)isoquinolin-1(2H)-one] | 281 to 283 °C | –
5 | COc1cc(O)nc2cc(-c3cc(C)c(O)c(C)c3)[nH]c(=O)c12 (as salt: hydrochloride) [Example 9, 2-hydroxy-7-(4-hydroxy-3,5-dimethylphenyl)-4-methoxy-1,6-naphthyridin-5(6H)-one] | > 330 °C | –
6 | COc1cc(OC)c2c(=O)[nH]c(-c3cc(C)c(OCCN4CCOCC4)c(C)c3)nc2c1 (as salt: hydrochloride) [Example 17, 2-(3,5-dimethyl-4-(2-morpholinoethoxy)phenyl)-5,7-dimethoxyquinazolin-4(3H)-one] | 185 to 187 °C | –
7 | COc1cc(OC)c2c(=O)[nH]c(-c3cc(C)c(OCCN4CCN(C)CC4)c(C)c3)cc2c1 (as salt: hydrochloride) [Example 18, 3-(3,5-dimethyl-4-(2-(4-methylpiperazin-1-yl)ethoxy)phenyl)-6,8-dimethoxyisoquinolin-1(2H)-one] | 195 to 198 °C | –
8 | COc1cc(OC)c2c(=O)[nH]c(-c3ccccn3)nc2c1 (as salt: hydrochloride) [Example 21, 5,7-dimethoxy-2-(pyridin-2-yl)quinazolin-4(3H)-one] | 215 to 217 °C | –
9 | COc1cc(OC)c2c(=O)[nH]c(-c3cccnc3)nc2c1 (as salt: hydrochloride) [Example 22, 5,7-dimethoxy-2-(pyridin-3-yl)quinazolin-4(3H)-one] | 257 to 259 °C | –
10 | COc1cc(OC)c2c(=O)[nH]c(-c3ccncc3)nc2c1 (as salt: hydrochloride) [Example 28, 5,7-dimethoxy-2-(pyridin-4-yl)quinazolin-4(3H)-one] | 294 to 295 °C | –
11 | Cc1cc(-c2nc3ccccc3c(=O)[nH]2)cc(C)c1OCCN1CCOCC1 (as salt: hydrochloride) [Example 29, 2-(3,5-dimethyl-4-(2-morpholinoethoxy)phenyl)quinazolin-4(3H)-one] | 300 to 302 °C | –
12 | COc1cc(OC)c2c(=O)[nH]c(-c3ccc(CN4CCN(C)CC4)cc3)nc2c1 (as salt: hydrochloride) [Example 54, 5,7-dimethoxy-2-(4-((4-methylpiperazin-1-yl)methyl)phenyl)quinazolin-4(3H)-one] | 275 to 277 °C | –
13 | Cc1cc(-c2nc3ccc(CN4CCOCC4)cc3c(=O)[nH]2)cc(C)c1O (as salt: hydrochloride) [Example 57, 2-(4-hydroxy-3,5-dimethylphenyl)-6-(morpholinomethyl)quinazolin-4(3H)-one] | 284 to 286 °C | –
14 | COc1cc(OC)c2c(=O)[nH]c(-c3ccc(CN4CCOCC4)cc3)nc2c1 (as salt: hydrochloride) [Example 61, 5,7-dimethoxy-2-(4-(morpholinomethyl)phenyl)quinazolin-4(3H)-one] | 206 to 208 °C (dec.) | –
15 | CCN1CCN(Cc2ccc(-c3nc4cc(OC)cc(OC)c4c(=O)[nH]3)cc2)CC1 (as salt: hydrochloride) [Example 62, 2-(4-((4-ethylpiperazin-1-yl)methyl)phenyl)-5,7-dimethoxyquinazolin-4(3H)-one] | 278 to 280 °C (dec.) | –
16 | O=c1[nH]c(-c2ccc(O)cc2)cc2ccccc12 [Example 1, 3-(4-Hydroxyphenyl)-2H-isoquinolin-1-one] | 239 to 241 °C | Active
17 | COc1cc(OC)c2c(=O)[nH]c(-c3ccc(O)cc3)cc2c1 [Example 3, 3-(4-hydroxyphenyl)-6,8-dimethoxyisoquinolin-1(2H)-one] | 245 to 247 °C | Active

Row | SMILES | melting point | FRET activity (<50 uM) (Brd4 bromodomain 1)
18 | COc1cc(OC)c2c(=O)[nH]c(-c3cc(C)c(OCC(C)(C)O)c(C)c3)cc2c1 [Example 11, 3-(4-(2-hydroxy-2-methylpropoxy)-3,5-dimethylphenyl)-6,8-dimethoxyisoquinolin-1(2H)-one] | 252 to 254 °C | Active
19 | COc1cc2c(c(OC)c1)S(=O)(=O)NC(c1cc(C)c(O)c(C)c1)=C2 [Example 12, 6,8-dimethoxy-3-(4-hydroxy-3,5-dimethylphenyl)-2H-1,2-benzothiazine-1,1-dioxide] | 246.6 to 247.4 °C | Active
20 | COc1cc2cc(-c3cc(C)c(O)c(C)c3)n(C)c(=O)c2c(OC)c1C [Example 14 (left), 3-(4-hydroxy-3,5-dimethylphenyl)-6,8-dimethoxy-2,7-dimethylisoquinolin-1(2H)-one] | 246 to 248 °C | –
21 | COc1cc(OC)c2c(=O)[nH]c(-c3cc(C(C)(C)C)c(O)c(C(C)(C)C)c3)nc2c1 [Example 23, 2-(3,5-di-tert-butyl-4-hydroxyphenyl)-5,7-dimethoxyquinazolin-4(3H)-one] | 229.7 to 230.5 °C | Inactive
22 | COc1cc(OC)cc(-c2nc3cc(OC)cc(OC)c3c(=O)[nH]2)c1 [Example 24, 2-(3,5-dimethoxyphenyl)-5,7-dimethoxyquinazolin-4(3H)-one] | 270 to 272 °C | Inactive
23 | COc1ccc(-c2nc3cc(OC)cc(OC)c3c(=O)[nH]2)cc1 [Example 25, 5,7-dimethoxy-2-(4-methoxyphenyl)quinazolin-4(3H)-one] | 276 to 277 °C | Inactive
24 | COc1cc2nc(-c3ccc(N(C)C)c4ccccc34)[nH]c(=O)c2cc1OC [Example 39] | 235.5 to 236.5 °C | –
25 | COc1cc2nc(-c3ccc(N(CCO)CCO)cc3)[nH]c(=O)c2cc1OC [Example 42, 2-(4-(bis(2-hydroxyethyl)amino)phenyl)-6,7-dimethoxyquinazolin-4(3H)-one] | 268 to 270 °C | –
26 | COc1cc(OC)c2c(=O)[nH]c(-c3ccc(OCCO)c(OC)c3)nc2c1 [Example 52, 2-(4-(2-hydroxyethoxy)-3-methoxyphenyl)-5,7-dimethoxyquinazolin-4(3H)-one] | 246 to 248 °C | –
27 | COc1cc(OC)c2c(=O)[nH]c(-c3cc(C)c(OCCO)c(C)c3)cc2n1 [Example 56, 7-(4-(2-hydroxyethoxy)-3,5-dimethylphenyl)-2,4-dimethoxy-1,6-naphthyridin-5(6H)-one] | 224.9 to 225.4 °C | –
28 | COc1cc(OC)c2c(=O)[nH]c(-c3cc(C)c(OCCNC(C)=O)c(C)c3)nc2c1 [Example 106, N-(2-(4-(5,7-dimethoxy-4-oxo-3,4-dihydroquinazolin-2-yl)-2,6-dimethylphenoxy)ethyl)acetamide] | – | Active
29 | COc1cc(OC)c2c(=O)[nH]c(-c3cc(C)c(OCCNC(=O)c4ccccc4)c(C)c3)nc2c1 [Example 107, N-(2-(4-(5,7-dimethoxy-4-oxo-3,4-dihydroquinazolin-2-yl)-2,6-dimethylphenoxy)ethyl)benzamide] | – | Active
30 | COc1cc(OC)c2c(=O)[nH]c(-c3cc(C)c(OCCNC(=O)C(C)C)c(C)c3)nc2c1 [Example 108, N-(2-(4-(5,7-dimethoxy-4-oxo-3,4-dihydroquinazolin-2-yl)-2,6-dimethylphenoxy)ethyl)isobutyramide] | – | Active
31 | CNC(=O)NCCOc1c(C)cc(-c2nc3cc(OC)cc(OC)c3c(=O)[nH]2)cc1C [Example 109, 1-(2-(4-(5,7-dimethoxy-4-oxo-3,4-dihydroquinazolin-2-yl)-2,6-dimethylphenoxy)ethyl)-3-methylurea] | – | Active
32 | COc1ccc(NC(=O)NCCOc2c(C)cc(-c3nc4cc(OC)cc(OC)c4c(=O)[nH]3)cc2C)cc1 [Example 110, 1-(2-(4-(5,7-dimethoxy-4-oxo-3,4-dihydroquinazolin-2-yl)-2,6-dimethylphenoxy)ethyl)-3-(4-methoxyphenyl)urea] | – | Inactive
33 | COc1cc(OC)c2c(=O)[nH]c(-c3cc(C)c(OCCNC(=O)Nc4ccccc4)c(C)c3)nc2c1 [Example 111, 1-(2-(4-(5,7-dimethoxy-4-oxo-3,4-dihydroquinazolin-2-yl)-2,6-dimethylphenoxy)ethyl)-3-phenylurea] | – | Active
34 | COc1cc(OC)c2c(=O)[nH]c(-c3cc(C)c(OCCNC(=O)N(C)C)c(C)c3)nc2c1 [Example 112, 3-(2-(4-(5,7-dimethoxy-4-oxo-3,4-dihydroquinazolin-2-yl)-2,6-dimethylphenoxy)ethyl)-1,1-dimethylurea] | – | Active
